# Experimental data: patent US20240239894A1, “THERAPEUTIC BINDING MOLECULES” (MedImmune Limited, priority 2020, published 2024)
# Non-standard residues stand in square brackets, D forms with d. Residues, ends and D or L forms follow the SMILES beside them. *: point of attachment. Dolaproine = CO[C@@H]([C@@H]1CCCN1)[C@@H](C)C(=O)O; Dil = CC[C@H](C)[C@H](NC)[C@@H](CC(=O)O)OC; X1 = C[C@@H](N*)[C@@H](O)c1ccccc1; NMeV = CN[C@H](C(=O)O)C(C)C
# Experiments:
# [1] = system: DLD1 BRCA2−/− cells; experiment: 6-day cytotoxicity assay of warheads; assay type: cell-based
# From the text: (§1) MMAE=negative control, microtubule-inhibitor warhead.
# (§2) Additionally, HR-deficiency increases sensitivity to the SG3932 warhead. […] Cell viability was reduced in both wild-type and BRCA2−/− cells when treated with the MMAE warhead.
# [2] = system: DLD1 wt cells; experiment: 6-day cytotoxicity assay of warheads; assay type: cell-based; conditions: wild-type cells
# From the text: as §1, §2
structure (smiles),measurement,setting,value
CC[C@H](C)[C@@H]([C@@H](CC(=O)N1CCC[C@H]1[C@H](OC)[C@@H](C)C(=O)N[C@H](C)[C@@H](O)c1ccccc1)OC)N(C)C(=O)[C@@H](NC(=O)[C@@H](NC)C(C)C)C(C)C [MMAE] (H-[NMeV]V[Dil][Dolaproine]-X1),cell viability,[1],reduced
same,cell viability,[2],reduced
